Data: US20240293394A1, “METHODS FOR TREATING ANTIPSYCHOTIC-INDUCED WEIGHT GAIN” (priority 2010, published 2024)
Read-outs that look alike come from different tables or passages of the source.

Columns and labels:
[1] = Olanzapine-related changes (body weight, adipose tissue, serum chemistry) in female cynomolgus monkeys; assay type: in vivo
Protocol: Clinical observations and weight gain were assessed over a 28-day treatment period. […] Beginning two weeks prior to the study, monkeys were given ad libitum access to a highly palatable, high caloric diet. On the day prior to the start of treatment, monkeys were weighed and assigned to groups using a randomized block design based on body weight (BW); average BW across the 3 groups was 3.1+0.08 kg on the day of randomization. Also, baseline whole body CT scans were taken on the day prior to initiation of treatments. […] A second CT scan was conducted on day 29.

[2] = patients; Taylor et al., Acta Psychiatr Scand. 2001; cited from earlier work
[3] = Olanzapine-related weight gain in female rats; assay type: in vivo
Excerpt: The rats were assigned to treatment groups using a random block design based on initial body weight.

ghrelin [4] = experiment: Circulating ghrelin levels in conscious, unrestrained rats; assay type: in vivo; settings: 10 mg/kg PO, two hours post administration
Protocol: To determine whether Compound1 and naltrexone have any effect on circulating levels of ghrelin, conscious, unrestrained rats (low stress model) were administered Compound 1 and nalrextone (10 mg/kg, PO). Blood samples were collected and analyzed by bioanalytical for circulating levels of ghrelin at 0, 15, 30, 60, and 120 minutes most administration.

ghrelin [5] = settings: known in literature; cited from earlier work
[6] = co-administration of Compound 1 0.4 mg/kg IM with olanzapine, serum, Day 28
[7] = olanzapine with Compound 1 0.4 mg/kg IM once daily, 28 days
[8] = olanzapine only, compared to the vehicle group

NC(=O)c1ccc2c(c1O)[C@]13CCN(CC4CC4)[C@H](C2)[C@]1(O)CCC(=O)C3 [Compound 1]
effect on olanzapine-induced elevation in LDL concentrations [1, 6]: prevented
effect on olanzapine-induced elevation in TGs [1, 6]: prevented
effect on OLZ-induced changes (weight, adipose tissue accretion, TGs and LDLs) ([1]; co-administration of Compound 1 with olanzapine, 28 days): mitigated
average body weight gain [1, 7]: 0.08 kg
average body weight gain, % of Day 0 BW [1, 7]: 2.6%

O=C1CCc2ccc(OCCCCN3CCN(c4cccc(Cl)c4Cl)CC3)cc2N1 [aripiprazole, 7-[4-[4-(2,3-dichlorophenyl)piperazin-1-yl]butoxy]-3,4-dihydro-1H-quinolin-2-one]
weight gain associated with atypical antipsychotic [2]: less

O=C1CC[C@@]2(O)[C@H]3Cc4ccc(O)c5c4[C@@]2(CCN3CC2CC2)[C@H]1O5 [naltrexone]
effect on olanzapine-induced weight gain ([3]; 2 mg/kg SC concurrent with afternoon olanzapine (1 mg/kg PO twice daily), 10 days): did not affect olanzapine-induced weight gain
circulating ghrelin levels (ghrelin [4]): significantly greater circulating ghrelin levels than Compound 1

Cc1cc2c(s1)Nc1ccccc1N=C2N1CCN(C)CC1 [olanzapine, 2-methyl-4-(4-methyl-1-piperazinyl)-10H-thieno[2,3-b][1,5]benzodiazepine]
weight gain (body weight) ([3]; olanzapine alone 1 mg/kg PO twice daily, 10 consecutive days, vs vehicle control): greater increases in weight gain
adipose tissue gain (CT scan) [1, 8]: gained relatively more adipose tissue compared to the vehicle group
location of adipose tissue deposition (CT scan) [1, 8]: more abdominal fat accretion
circulating ghrelin levels (ghrelin [5]): increases circulating ghrelin levels

OCCOCCN1CCN(C2=Nc3ccccc3Sc3ccccc32)CC1 [quetiapine, 2-(2-(4-dibenzo[b,f][1,4]thiazepine-11-yl-1-piperazinyl)ethoxy)ethanol]
weight gain associated with atypical antipsychotic [2]: greatest

O=C1Cc2cc(CCN3CCN(c4nsc5ccccc45)CC3)c(Cl)cc2N1 [ziprasidone, 5-[2-[4-(1,2-benzisothiazol-3-yl)-1-piperazinyl]ethyl]-6-chloro-1,3-dihydro-2H-indol-2-one]
weight gain associated with atypical antipsychotic [2]: less
